According to patent US8962608B2, “Cycloalkylnitrile pyrazole carboxamides as janus kinase inhibitors” (Merck Sharp & Dohme Corp., priority 2011, dated 2015):

Each compound was assayed against JAK2 (recombinant purified GST-tagged catalytic domain) (Homo sapiens (Human), UniProt O60674) (assay: biochemical).
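Also: biochemical JAK kinase assay with HTRF detection.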

Chain of JAK2 (recombinant purified GST-tagged catalytic domain) (O60674 849-1124): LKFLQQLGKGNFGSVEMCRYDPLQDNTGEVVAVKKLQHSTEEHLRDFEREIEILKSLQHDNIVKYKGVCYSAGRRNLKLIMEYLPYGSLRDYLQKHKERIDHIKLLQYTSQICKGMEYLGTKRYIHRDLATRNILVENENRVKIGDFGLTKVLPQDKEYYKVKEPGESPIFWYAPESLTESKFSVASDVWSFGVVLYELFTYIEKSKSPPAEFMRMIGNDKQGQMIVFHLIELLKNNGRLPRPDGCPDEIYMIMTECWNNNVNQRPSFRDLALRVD

SMILES	IC50
C[C@H](N[C@H]1CC[C@H](n2cc(C(N)=O)c(Nc3ccc(S(=O)(=O)C(F)(F)F)cc3)n2)[C@@H](C#N)C1)C1CC1 (single isomer, unassigned) [Example 28-184, 1-{(1S,2S,4S or 1R,2R,4R)-2-cyano-4-[(1-cyclopropylethyl)amino]cyclo-hexyl}-3-({4-[(trifluoromethyl)sulfonyl]phen-yl}amino)-1H-pyrazole-4-carboxamide]	0.023 µM
N#C[C@H]1C[C@H](OC(=O)Nc2ccccc2)CCC1n1cc(C(N)=O)c(Nc2ccc(F)cc2)n1 (mixture of isomers) [Example 34-3, (1R,3S,4S and 1S,3R,4R)-4-{4-carbamoyl-3-[(4-fluorophonyl)aminol-1H-pyrazol-1-yl}-3-cyanocyclohexyl phenylcarbamate]	0.013 µM
Cc1cc(Nc2nn([C@H]3CCCC[C@@H]3C#N)cc2C(N)=O)cnc1C#N (single isomer, unassigned) [Example 17-77, 1-[(1R,2R or 1S,2S)-2-cyanocyclohexyl]-3-[(6-cyano-5-methylpyridin-3-yl)amino]-1H-pyrazole-4-carboxamide]	0.018 µM
N#C[C@H]1CCCC[C@@H]1n1cc(C(N)=O)c(Nc2ccccc2)n1 (racemic) [Example 2-1, 1-((1S,2S and 1R,2R)-2-cyanocyclohexyl)-3-(phenylamino)-1H-pyrazole-4-carboxamide]	0.036 µM
N#C[C@@H]1C[C@H](OCC2CC2)CC[C@H]1n1cc(C(N)=O)c(Nc2ccc([C@H](O)C(F)(F)F)cc2)n1 (single isomer, unassigned) [Example 26-6, 1-[(1R,2R,4R or 1S,2S,4S)-2-cyano-4-(cyclopropylmethoxy)cyclohexyl]-3-({4-[(1S or 1R)-2,2,2-trifluoro-1-hydroxyethyl]phenyl}amino)-1H-pyrazole-4-carboxamide]	0.032 µM
N#C[C@H]1C[C@@H](NCCC(F)(F)F)CC[C@@H]1n1cc(C(N)=O)c(Nc2ccc(S(=O)(=O)C(F)(F)F)cc2)n1 (single isomer, unassigned) [Example 28-166, 1-{(1S,2S,4S or 1R,2R,4R)-2-cyano-4-[(3,3,3-trifluoro-propyl)amino]cyclohexyl}-3-({4-[(trifluoro-methyl)sulfonyl]phenyl}amino)-1H-pyrazole-4-carboxamide]	0.055 µM
N#C[C@H]1C[C@H](O)CC[C@@H]1n1cc(C(N)=O)c(Nc2ccc(C(F)(F)F)c(F)c2)n1 (single isomer, unassigned) [Example 25-23, 1-[(1S,2S,4R or 1R,2R,4S)-2-cyano-4-hydroxycyclohexyl]-3-{[3-fluoro-4-(trifluoromethyl)phenyl]amino}-1H-pyrazole-4-carboxamide]	0.028 µM
N#C[C@H]1C[C@H](N2CCC2)CC[C@@H]1n1cc(C(N)=O)c(Nc2ccc(Cl)c(F)c2)n1 (single isomer, unassigned) [Example 28-37, 1-[(1S,2S,4R or 1R,2R,4S)-4-azetidin-1-yl-2-cyanocyclohexyl]-3-[(4-chloro-3-fluorophenyl)amino]-1H-pyrazole-4-carboxamide]	0.12 µM
CC1(CN[C@H]2CCC(n3cc(C(N)=O)c(Nc4ccc(Cl)cc4)n3)[C@@H](C#N)C2)COC1 (single isomer, unassigned) [Example 28-217, 3-[(4-chlorophenyl)amino]-1-[(1S,2S,4S or 1R,2R,4R)-2-cyano-4-{[(3-methyloxetan-3-yl)methyl]amino}cyclohexyl]-1H-pyrazole-4-carboxamide]	0.047 µM
CN(C)[C@@H]1CC[C@H](n2cc(C(N)=O)c(Nc3ccc(C(F)(F)F)cc3)n2)[C@@H](C#N)C1 (single isomer, unassigned) [Example 28-189, 1-[(1S,2S,4R or 1R,2R,4S)-2-cyano-4-(dimethylamino)cyclohexyl]-3-{[4-(trifluoromethyl)phenyl]amino}-1H-pyrazole-4-carboxamide]	0.021 µM
N#C[C@H]1CC(N2CCC[C@@H]2CF)CC[C@@H]1n1cc(C(N)=O)c(Nc2ccc(S(=O)(=O)C(F)(F)F)cc2)n1 (single isomer, unassigned) [Example 28-156, 1-{(1S,2S or 1R,2R)-2-cyano-4-[(2R)-2-(fluoromethyl)pyrrolidin-1-yl]cyclohexyl}-3-({4-[(trifluoro-methyl)sulfonyl]phenyl}amino)-1H-pyrazole-4-carboxamide]	0.014 µM
N#C[C@H]1C[C@H](N2CCC2)CC[C@@H]1n1cc(C(N)=O)c(Nc2ccc([C@H](O)C(F)(F)F)cc2)n1 (single isomer, unassigned) [Example 28-65, 1-[(1S,2S,4R or 1R,2R,4S)-4-azetidin-1-yl-2-cyanocyclohexyl]-3-({4-[(1S or 1R)-2,2,2-trifluoro-1-hydroxyethyl]phenyl}amino)-1H-pyrazole-4-carboxamide]	0.012 µM
CC1(C)CN([C@H]2CC[C@H](n3cc(C(N)=O)c(Nc4ccc([C@@H](O)C(F)(F)F)cc4)n3)[C@@H](C#N)C2)C1 (single isomer, unassigned) [Example 28-61, 1-[(1S,2S,4S or 1R,2R,4R)-2-cyano-4-(3,3-dimethylazetidin-1-yl)cyclohexyl]-3-({4-[(1R or 1S)-2,2,2-trifluoro-1-hydroxyethyl]phenyl}amino)-1H-pyrazole-4-carboxamide]	0.004 µM
CC1(CN[C@H]2CC[C@H](n3cc(C(N)=O)c(Nc4ccc(C(F)(F)F)cc4)n3)[C@@H](C#N)C2)COC1 (single isomer, unassigned) [Example 28-26, 1-[(1S,2S,4S or 1R,2R,4R)-2-cyano-4-{[(3-methyloxetan-3-yl)methyl]amino}cyclohexyl]-3-{[4-(trifluoromethyl)phenyl]amino}-1H-pyrazole-4-carboxamide]	0.035 µM
N#C[C@H]1CCCC[C@@H]1n1cc(C(N)=O)c(Nc2cnc3cc(Cl)ccc3c2)n1 (single isomer, unassigned) [Example 17-61, 3-[(7-chloroquinolin-3-yl)amino]-1-[(1S,2S or 1R,2R)-2-cyanocyclohexyl]-1H-pyrazole-4-carboxamide]	0.021 µM
N#C[C@H]1C[C@H](NCC(F)F)CC[C@@H]1n1cc(C(N)=O)c(Nc2ccnc(F)c2)n1 (single isomer, unassigned) [Example 28-106, 1-{(1S,2S,4R or 1R,2R,4S)-2-cyano-4-[(2,2-difluoroethyl)amino]cyclohexyl}-3-[(2-fluoropyridin-4-yl)amino]-1H-pyrazole-4-carboxamide]	0.053 µM
N#Cc1cncc(Nc2nn([C@H]3CCCC[C@@H]3C#N)cc2C(N)=O)c1 (single isomer, unassigned) [Example 17-74, 1-[(1R,2R or 1S,2S)-2-cyanocyclohexyl]-3-[(5-cyanopyridin-3-yl)amino]-1H-pyrazole-4-carboxamide]	0.049 µM
N#C[C@H]1C[C@@H](NCC(F)F)CCC1n1cc(C(N)=O)c(Nc2ccc(S(=O)(=O)C(F)(F)F)cc2)n1 (mixture of isomers) [Example 27-14, 1-{(1S,2S,4S and 1R,2R,4R)-2-cyano-4-[(2,2-difluoroethyl)amino]cyclohexyl}-3-({4-[(trifluoromethyl)sulfonyl]phenyl)amino)-1H-pyrazole-4-carboxamide]	0.011 µM
N#C[C@H]1C[C@@H](OCC2CC2)CC[C@H]1n1cc(C(N)=O)c(Nc2ccc(F)cc2)n1 (single isomer, unassigned) [Example 26-11, 1-[(1R,2S,4S or 1S,2R,4R)-2-cyano-4-(cyclopropylmethoxy)cyclohexyl]-3-[(4-fluorophenyl)amino]-1H-pyrazole-4-carboxamide]	> 1.5 µM
N#C[C@H]1CC(N2CCC[C@H]2CF)CC[C@@H]1n1cc(C(N)=O)c(Nc2ccc(S(=O)(=O)C(F)(F)F)cc2)n1 (single isomer, unassigned) [Example 28-157, 1-{(1S,2S or 1R,2R)-2-cyano-4-[(2S)-2-(fluoromethyl)pyrrolidin-1-yl]cyclohexyl}-3-({4-[(trifluoro-methyl)sulfonyl]phenyl}amino)-1H-pyrazole-4-carboxamide]	0.028 µM
N#C[C@H]1C[C@H](NCCC(F)(F)F)CC[C@@H]1n1cc(C(N)=O)c(Nc2ccc(S(=O)(=O)C(F)(F)F)cc2)n1 (single isomer, unassigned) [Example 28-167, 1-{(1S,2S,4R or 1R,2R,4S)-2-cyano-4-[(3,3,3-trifluoropropyl)amino]cyclo-hexyl}-3-({4-[(trifluoro-methyl)sulfonyl]phenyl}amino)-1H-pyrazole-4-carboxamide]	0.082 µM
N#Cc1ccc(Nc2nn([C@H]3CCCC[C@@H]3C#N)cc2C(N)=O)cn1 (single isomer, unassigned) [Example 17-75, 1-[(1R,2R or 1S,2S)-2-cyanocyclohexyl]-3-[(6-cyanopyridin-3-yl)amino]-1H-pyrazole-4-carboxamide]	0.022 µM
CN(C)[C@H]1CC[C@H](n2cc(C(N)=O)c(Nc3ccc(OC(F)(F)F)cc3)n2)[C@@H](C#N)C1 (single isomer, unassigned) [Example 28-86, 1-[(1S,2S,4S or 1R,2R,4R)-2-cyano-4-(dimethylamino)cyclohexyl]-3-{[4-(trifluoromethoxy)phenyl]amino}-1H-pyrazole-4-carboxamide]	0.018 µM
N#C[C@H]1CC(NC2CC2)CCC1n1cc(C(N)=O)c(Nc2ccc(S(=O)(=O)C(F)(F)F)cc2)n1 (mixture of isomers) [Example 27-10, 1-[(1S,2S and 1R,2R)-2-cyano-4-(cyclopropylamino)cyclohexyl]-3-({4-[(trifluoromethyl)sulfonyl]phenyl}amino)-1H-pyrazole-4-carboxamide]	0.007 µM
CN(C(C1CC1)C1CC1)[C@@H]1CC[C@H](n2cc(C(N)=O)c(Nc3ccc(S(=O)(=O)C(F)(F)F)cc3)n2)[C@@H](C#N)C1 (single isomer, unassigned) [Example 28-179, 1-{(1S,2S,4R or 1R,2R,4S)-2-cyano-4-[(dicyclopropyl-methyl)(methyl)amino]cyclo-hexyl}-3-({4-[(trifluoromethyl)sulfonyl]phen-yl}amino)-1H-pyrazole-4-carboxamide]	0.17 µM
N#C[C@H]1C[C@H](OCC2CC2)CC[C@@H]1n1cc(C(N)=O)c(Nc2ccc([C@H](O)C(F)(F)F)cc2)n1 (single isomer, unassigned) [Example 26-7, 1-[(1S,2S,4R or 1R,2R,4S)-2-cyano-4-(cyclopropylmethoxy)cyclohexyl]-3-({4-[(1S or 1R)-2,2,2-trifluoro-1-hydroxyethyl]phenyl]amino)-1H-pyrazole-4-carboxamide]	0.009 µM
